The text below walks through data of patent publication US20220016277A1, “MACROCYCLIC COMPLEXES OF RADIONUCLIDES AND THEIR USE IN RADIOTHERAPY OF CANCER” (Cornell University, priority 2018, published 2022).

Data set [1] in a line: Kinetic inertness of Lu^3+ complex of macropa: transchelation challenge. The class given is physicochemical. Conditions: Lu^3+ complex of macropa formed in situ; addition of 10 equiv of EDTA; pH 7.4. The method, then:
(§1) Kinetic Inertness of La^3+ and Lu^3+ Complexes of Macropa: Transchelation Challenge. A stock solution of ethylenediaminetetraacetic acid (EDTA, 100 mM) was made in MOPS buffer (prepared as described above) by adjusting the pH of the initial suspension to 6.6 using aqueous NMe4OH. A stock solution of diethylenetriaminepentaacetic acid (DTPA, 125 mM) was prepared in H2O by adjusting the pH to 7.4 as described for EDTA. This solution was serially diluted with H2O to yield 12.5 mM and 1.25 mM solutions of DTPA.
(§2) The preformed La^3+ and Lu^3+ complexes of macropa were challenged with EDTA. […] […]. Solutions were repeatedly analyzed by UV spectroscopy over the course of 21 days for any spectral changes. The final pH of each solution was between 7.18 and 7.25.

Data set [2] can be described thus: Kinetic inertness of La^3+ complex of macropa: transchelation challenge. The class given is physicochemical. Conditions: La^3+ complex of macropa formed in situ; 1000 equiv of DTPA; whole 21-day observation. The method, then:
as §1, §2
The complex formed in situ between La^3+ and macropa was more rigorously challenged with excess DTPA. A solution containing 500 μM of complex, prepared using the LaCl3 and macropa stock solutions described above, was left to equilibrate for 5 min. Subsequently, it was portioned into cuvettes and diluted with either 125 mM DTPA, 12.5 mM DTPA, 1.25 mM DTPA, or MOPS to yield solutions containing 1000-, 100-, 10-, or 0-fold excess DTPA and 100 μM concentration of macropa. These solutions were repeatedly analyzed by UV spectroscopy over the course of 21 days for any spectral changes. The final pH of each solution was between 7.11 and 7.42.

In the case of `O=C(O)c1cccc(CN2CCOCCOCCN(Cc3cccc(C(=O)O)n3)CCOCCOCC2)n1` [macropa, N,N′-bis[(6-carboxy-2-pyridil)methyl]-4,13-diaza-18-crown-6], the “time until Lu^3+ ion was transchelated” value in data set [1] is recorded as at most 1 min. The “time La^3+ complex remained intact” value in data set [2] is given as “up to 21 days”.
